Experiment [1] concerns the target sigma-1 site compared to the sigma-2 site (Homo sapiens, UniProt Q99720). The settings on record: (+) isomers of benzomorphan opiates; cited from earlier work.
The subject of experiment [2] is spontaneously hypertensive rats exposed to permanent middle artery occlusion (MCAO). In words: Cylinder test for asymmetric forelimb use after MCA occlusion. Type of experiment: in vivo, rat. The settings on record: for performance in cylinder test versus control animals: 0.03-10 mg/kg s.c. or p.o. from two days after MCAO for 2-8 weeks, present-tense example. The source says: (§1) Male 3 months old SHR (spontaneous hypertensive) rats are used for induction of stroke by MCA occlusion. This is the preferred strain since most stroke patients are hypertensive. The animals are anesthetized with Methohexital and a small craniectomy is made above the zygmotic arch to expose the middle cerebral artery, which is occluded with a 10-0 monofilament nylon thread distal to the origin of the striatal branches. The rats are not intubated and no catheters are inserted. Following MCA occlusion a large and reproducible infarct is obtained, leading to a robust sensorimotor deficit. The animals are kept on a 6 hr light/18 h dark cycle with free access to food and water. At two days after the MCAO the rats are treated with the compound I, II, III, IV, V, VI, VII, VIII, or IX (0.03-10 mg/kg) s.c. or p.o. and a control group is given saline for 2-8 weeks. At 2, 4, 6 and 8 weeks animals are tested in the rotating pole or cylinder test.
The cylinder test (modified from Schallert and Tillerson (Innovative models of CNS disease: from molecule to therapy. Clifton, N.J., Humana, 1999) is used to quantify the forelimb use for rearing on the cylinder wall. The rats are monitored as they move freely in a 20-cm-wide clear glass cylinder. Contacts made by each forepaw with the cylinder wall while rearing are scored by a blinded observer. A total of 20 contacts are recorded for each animal, and the number of impaired (left), both, and non-impaired forelimb contacts as percentage of total contacts is calculated. Baseline for rats is achieved by measuring the contacts made by each forepaw before MCAO.
Forty three spontaneously hypertensive rats were exposed to permanent middle artery occlusion (MCAO), then divided into three treatment groups. Starting at two days after occlusion and continuing daily for 14 days, AGY-94806 was administered p.o. in doses of 0.1 mg/kg (14 rats) or 0.3 mg/kg (14 rats). In a control group (15 rats), vehicle only was administered. At the start of treatment, and at several time points during the test, the rats were assessed for their performance in the cylinder test. This test is described in Example 1. It measures the sensory-motor performance of the animals. The performance of the rats in the test was assessed one day before permanent MCAO, then at 14 days, 28 days and 59 days after permanent MCAO. The rats were monitored as they moved freely in a 20 cm-wide clear glass cylinder. Contacts made by each forepaw with the cylinder wall while rearing were scored by a blinded observer. A total of 20 contacts were recorded for each animal, and the number of impaired (left), both, and non-impaired forelimb contacts as a percentage of total contacts was calculated.

In experiment [3] the test system is rat primary neuronal cultures. The note with it: cited from earlier work.
Experiment [4] has as its system spontaneously hypertensive rats exposed to permanent middle artery occlusion (MCAO). In words: Rotating pole test after MCA occlusion (stroke model). The class given is in vivo, rat. The note with it: 0.03-10 mg/kg s.c. or p.o. from two days after MCAO for 2-8 weeks; present-tense example.
Description: as §1
Cylinder Test for Asymmetric Use of Forelimb Use in Spontaneous Rearing
Thirty five spontaneously hypertensive rats were exposed to permanent middle artery occlusion (MCAO), then divided into three treatment groups. Starting at two days after occlusion and continuing daily until 28 days after occlusion, AGY-94806 was administered s.c. in doses of 0.3 mg/kg (12 rats) or 1.0 mg/kg (12 rats). In a control group (11 rats), vehicle only was administered. At the start of treatment, and at several time points during the test, the rats were assessed for their performance in the rotating pole model. This model is described in Example 1. It requires the rats to cross a horizontally suspended rotating pole having a length of 1 m. This task measures the sensory-motor performance of the animals. The animals' behaviour was recorded using a video camera and later analyzed and scored by a trained technician. The scoring ranges from 0 to 6, with 0 being very poor performance and 6 reflecting the performance of a healthy animal (without MCAO).

For experiment [5], the system named is NMDA-induced toxicity and seizures. The note with it: in vivo models; cited from earlier work.
Experiment [6] relates to gerbils. The settings on record: cited from earlier work.

Structures are written as SMILES.

sigma-1 site compared to the sigma-2 site, sequence (Q99720 whole entry): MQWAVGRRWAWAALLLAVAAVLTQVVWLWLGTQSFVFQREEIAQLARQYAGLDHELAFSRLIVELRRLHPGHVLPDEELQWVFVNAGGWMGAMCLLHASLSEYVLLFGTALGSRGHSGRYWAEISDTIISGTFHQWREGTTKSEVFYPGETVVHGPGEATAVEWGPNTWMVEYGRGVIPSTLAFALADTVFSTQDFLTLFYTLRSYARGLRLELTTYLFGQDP

With `CC(C)=CCN1CCC2(C)c3cc(O)ccc3CC1C2C` (single isomer, unassigned; (+)) [(+)pentazocine], the “affinity for the sigma-1 site compared to the sigma-2 site” value in experiment [1] is on record as “nearly two orders of magnitude higher affinity”.

Consider `COc1ccc(CCN2CCN(CCCc3ccccc3)CC2)cc1OC` [AGY-94806, 1-(3,4-dimethoxyphenethyl)-4-(3-phenylpropyl) piperazine], for which the “asymmetry of paw usage” value in experiment [2] (0.3 mg/kg p.o., all time points measured) is on record as “reduced to pre-MCAO levels”. For the same compound, in experiment [2], the “performance in cylinder test versus control animals” value was “perform better”. Besides, the hypoxia/hypoglycemia-induced neurotoxicity entry in experiment [3] is “significantly suppress”. Further, in experiment [4], the “performance in rotating pole test versus control animals” value was “perform better”.

`OC(CCCN1CCN(c2ncc(F)cn2)CC1)c1ccc(F)cc1` (stereo not shown) [BMY-14802]: the “protective effects against NMDA-induced toxicity and seizures” value (“protective effects” below) in experiment [5] was “in vivo protective effects”.

For the compound `O=C(OCCN1CCOCC1)C1(c2ccccc2)CCCCC1` [III], the “performance in cylinder test versus control animals” value in experiment [2] is “perform better”. Besides, the “performance in rotating pole test versus control animals” value in experiment [4] was “perform better”.

As for `O=C(NC1CCN(Cc2ccccc2)CC1)c1ccc(I)cc1` [II], in experiment [2], the “performance in cylinder test versus control animals” value is “perform better”. The “performance in rotating pole test versus control animals” value in experiment [4] is “perform better”.

For `COc1ccc(CN2CCN(Cc3ccccc3)CC2)c(O)c1OC` [IX], in experiment [2], the “performance in cylinder test versus control animals” value is on record as “perform better”. Also, the “performance in rotating pole test versus control animals” value in experiment [4] is given as “perform better”.

Consider `COCCCC/C(=N\OCCN)c1ccc(C(F)(F)F)cc1` [I], for which the “performance in cylinder test versus control animals” value in experiment [2] is recorded as “perform better”. Besides, in experiment [4], the “performance in rotating pole test versus control animals” value is listed as “perform better”.

Take `CN(CCc1ccc(Cl)c(Cl)c1)C1CCCCC1N1CCCC1` (stereo not shown) [VIII]: the “performance in cylinder test versus control animals” value in experiment [2] is recorded as “perform better”. In experiment [4], the “performance in rotating pole test versus control animals” value is “perform better”.

For `COc1cccc2c1CCC(=O)N2CCCN1CCN(c2cccc(Cl)c2)CC1` [VII], the “performance in cylinder test versus control animals” value in experiment [2] was “perform better”. Moreover, the “performance in rotating pole test versus control animals” value in experiment [4] is “perform better”.

As for `CCC(C/C=C/c1ccccc1)(c1ccccc1)N(C)CC1CC1` (stereo not shown) [VI], the “performance in cylinder test versus control animals” value in experiment [2] is “perform better”. Moreover, the “performance in rotating pole test versus control animals” value in experiment [4] is “perform better”.

On to `Fc1ccc(-n2cc(CCCCN3CCC4(CC3)OCc3ccccc34)c3ccccc32)cc1` [V], for which the “performance in cylinder test versus control animals” value in experiment [2] is recorded as “perform better”. Moreover, the “performance in rotating pole test versus control animals” value in experiment [4] is given as “perform better”.

Take `CCN(CC)CCOC(=O)C1(c2ccccc2)CCCC1` [caramiphen]: in experiment [5], the “protective effects” value was “in vivo protective effects”.

In the case of `O=C(CCCN1CCC(O)(c2ccc(Cl)cc2)CC1)c1ccc(F)cc1` [haloperidol], in experiment [5], the “protective effects” value is “in vivo protective effects”.

As for `OCCN1CCN(CCCN2c3ccccc3C=Cc3ccccc32)CC1` [opipramol], the protection against ischemia entry in experiment [6] was “protect against ischemia”.

Values taken from patent publication US7829562B2, “Sigma ligands for neuronal regeneration and functional recovery” (M's Science Corporation, priority 2003, dated 2010).
